# Measured values from ChEMBL document CHEMBL3880430, “Arginine derivatives with NP-1 antagonistic activity” (2012).
# Calls of active or inactive are those of the source. The rule behind the calls is not given here.
# Target: Neuropilin-1 (Homo sapiens) (UniProt O14786)
# Experiment: Inhibition of neuropilin-1 in human DU145 cells assessed as decrease in cell adhesion to extracellular matrix proteins at 10 to 100 uM after 1.5 hrs by calcein-AM dye based fluorescence assay
# Settings: DU-145
# Chain of Neuropilin-1 (Homo sapiens) (O14786 whole entry): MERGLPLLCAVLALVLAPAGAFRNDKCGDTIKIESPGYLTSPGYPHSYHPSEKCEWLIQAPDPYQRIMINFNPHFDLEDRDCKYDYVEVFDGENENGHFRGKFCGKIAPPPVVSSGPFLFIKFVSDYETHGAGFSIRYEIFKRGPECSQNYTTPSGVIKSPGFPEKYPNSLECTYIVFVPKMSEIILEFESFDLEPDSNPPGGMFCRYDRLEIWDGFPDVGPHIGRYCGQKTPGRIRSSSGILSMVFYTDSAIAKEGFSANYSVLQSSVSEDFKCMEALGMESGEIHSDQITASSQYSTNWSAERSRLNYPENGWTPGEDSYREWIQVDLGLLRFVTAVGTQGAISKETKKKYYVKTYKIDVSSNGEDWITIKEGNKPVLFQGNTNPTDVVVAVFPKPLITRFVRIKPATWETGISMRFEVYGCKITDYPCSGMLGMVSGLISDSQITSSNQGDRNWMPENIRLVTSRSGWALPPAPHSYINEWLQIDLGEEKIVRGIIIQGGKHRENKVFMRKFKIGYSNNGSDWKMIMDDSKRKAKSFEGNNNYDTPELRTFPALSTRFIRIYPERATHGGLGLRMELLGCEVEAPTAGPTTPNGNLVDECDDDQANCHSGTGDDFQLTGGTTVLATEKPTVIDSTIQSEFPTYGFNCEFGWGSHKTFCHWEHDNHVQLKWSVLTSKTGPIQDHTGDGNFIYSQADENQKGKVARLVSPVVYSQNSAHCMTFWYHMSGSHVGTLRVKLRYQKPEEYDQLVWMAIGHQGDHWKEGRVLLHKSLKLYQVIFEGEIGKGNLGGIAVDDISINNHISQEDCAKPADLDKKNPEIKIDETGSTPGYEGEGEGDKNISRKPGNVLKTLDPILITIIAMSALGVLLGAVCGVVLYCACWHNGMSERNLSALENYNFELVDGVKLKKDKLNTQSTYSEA
row,inhibition,Structure (SMILES)
1,Active,N=C(N)NCCC[C@H](NC(=O)c1sccc1NS(=O)(=O)c1ccc(N)cc1)C(=O)O

# Target: Neuropilin-1 (Homo sapiens) (UniProt O14786)
# Experiment: Inhibition of neuropilin-1 in human ACHN cells assessed as decrease in cell migration at 10 to 100 uM after 4 hrs by trans-well assay
# Assay type: cell-based
# Settings: not given
row,inhibition,Structure (SMILES)
1,Active,N=C(N)NCCC[C@H](NC(=O)c1sccc1NS(=O)(=O)c1ccc(N)cc1)C(=O)O

# Target: Neuropilin-1 (Homo sapiens) (UniProt O14786)
# Experiment: Inhibition of neuropilin-1 in human A549 cells assessed as decrease in cell migration at 10 to 100 uM after 4 hrs by trans-well assay
# Assay type: cell-based
# Settings: not given
row,inhibition,Structure (SMILES)
1,Active,N=C(N)NCCC[C@H](NC(=O)c1sccc1NS(=O)(=O)c1ccc(N)cc1)C(=O)O

# Test system: not listed separately
# Experiment: Cytotoxicity in human A549 cells assessed as decrease in cell viability after 44 hrs by XTT assay
# Assay type: functional, cell-based
# Settings: A549, 44 h
row,Structure (SMILES),IC50 [µM]
1,Cc1noc(C)c1-c1cc2c(c(S(=O)(=O)Nc3ccsc3C(=O)N[C@@H](CCCNC(=N)N)C(=O)O)c1)OCC2,< 20
2,Cc1nn(C)c(Cl)c1CNc1cccc(S(=O)(=O)Nc2ccsc2C(=O)N[C@@H](CCCNC(=N)N)C(=O)O)c1,< 20
3,N=C(N)NCCC[C@H](NC(=O)c1sccc1NS(=O)(=O)c1ccc(N)cc1)C(=O)O,< 20
4,CC(=O)Nc1ccc(S(=O)(=O)Nc2ccsc2C(=O)N[C@@H](CCCNC(=N)N)C(=O)O)cc1,< 20
5,Cc1nc(CNc2cccc(S(=O)(=O)Nc3ccsc3C(=O)N[C@@H](CCCNC(=N)N)C(=O)O)c2)c(C)o1,< 20
6,N=C(N)NCCC[C@H](NC(=O)c1sccc1NS(=O)(=O)c1cccc(C#CCN)c1)C(=O)O,< 20
7,N=C(N)NC(=O)CC[C@H](NC(=O)c1sccc1NS(=O)(=O)c1ccccc1[N+](=O)[O-])C(=O)O,< 20
8,CN1CCOc2cc(-c3cc4c(c(S(=O)(=O)Nc5ccsc5C(=O)N[C@@H](CCCNC(=N)N)C(=O)O)c3)OCC4)cnc21,< 20
9,Cc1cc(CNc2cccc(S(=O)(=O)Nc3ccsc3C(=O)N[C@@H](CCCNC(=N)N)C(=O)O)c2)n(C)n1,< 20
10,N=C(N)NCCC[C@H](NC(=O)c1sccc1NS(=O)(=O)c1cccc(N)c1)C(=O)O,< 20
11,Cc1ccc2nsnc2c1S(=O)(=O)Nc1ccsc1C(=O)N[C@@H](CCCNC(=N)N)C(=O)O,< 20
12,N=C(N)NCCC[C@H](NC(=O)c1sccc1NS(=O)(=O)c1cc2ccccc2s1)C(=O)O,< 20
13,N=C(N)NCCC[C@H](NC(=O)c1sccc1NS(=O)(=O)c1ccccc1N)C(=O)O,< 20
14,N=C(N)NCCC[C@H](NC(=O)c1sccc1NS(=O)(=O)c1cccc(CCCN)c1)C(=O)O,< 20
15,Cc1noc(C)c1-c1cccc(S(=O)(=O)Nc2ccsc2C(=O)N[C@@H](CCCNC(=N)N)C(=O)O)c1,< 20
16,N=C(N)NCCC[C@H](NC(=O)c1sccc1NS(=O)(=O)c1cc2ccccc2o1)C(=O)O,< 20
17,N=C(N)NCCC[C@H](NC(=O)c1sccc1NS(=O)(=O)c1ccccc1[N+](=O)[O-])C(=O)O,< 20
18,N=C(N)NCCC[C@H](NC(=O)c1sccc1NS(=O)(=O)c1cccc(CCc2cccnc2)c1)C(=O)O,< 20
19,N=C(N)NCCC[C@H](NC(=O)c1sccc1NS(=O)(=O)c1cccc(NCc2ccccn2)c1)C(=O)O,< 20
